Assay results from patent publication US20100143935A1, “c-KIT Phosphorylation in Cancer” (Apocell, Inc., priority 2006, published 2010).
Entries after “also recorded” stand apart in the source; their conditions may differ.

Experiments:
melanoma = details: 800 mg/day; 26 patients; cited from earlier work
[1] = tested on: endothelial and tumor cells; test: CD31-TUNEL dual immunofluorescence of tumor biopsies before and 2 weeks after imatinib; type: in vivo, human; details: for apoptosis of endothelial and tumor cells: responder, after 2 weeks of imatinib treatment
From the text: FIG. 4. […] The stained samples were further analyzed for apoptotic cells by TUNEL assay (green). Representative images are shown. The corresponding CD31 and TUNEL images are merged (Composite).

[2] = tested on: MeWo stable cell lines expressing PK or with PTP knock down; test: Imatinib sensitivity of stable MeWo cell lines expressing PK or with PTP knock down; type: cell-based, human; details: PK-expressing or PTP knock down lines vs empty vector control cells
[3] = tested on: c-KIT phosphorylation at Y721; test: Laser scanning cytometry of phospho-Y721 c-KIT in tumor biopsies before and 2 weeks after imatinib; type: in vivo, human; details: responder, tumor biopsy 2 weeks after treatment vs baseline
From the text: FIG. 2. […] Tumor biopsies were stained by anti-phospho-Y721 c-KIT antibody followed by secondary antibody conjugated with a fluorescence probe. Laser scanning cytometry (LSC) was used to analyze the […] (MFI) across the tumor biopsies.
FIG. 3. […] (Top panels), Tumor biopsies obtained from the responder at baseline and 2 weeks after treatment (Post-treatment) were stained by anti-phospho-Y721 c-KIT antibody followed by secondary antibody conjugated with a fluorescence probe. Representative images are shown. The tumor sample stained only by the secondary antibody serves as a negative control. (Bottom panels), LSC was used to analyze the intensity of the phospho-Y721 of c-KIT (Cy5) across the entire cross section of tumor biopsies.
For c-KIT phosphorylation, tumor biopsies obtained at baseline (pre-treatment) and during the second week of treatment (post-treatment) were assayed. […] We also examined the levels of phospho-Y703.

Phospho-c-KIT (Y703) = target: T1, Phospho-c-KIT (Y703) (Homo sapiens, UniProt P10721); test: c-KIT phosphorylation (Y703) in GIST patients treated with sunitinib; type: in vivo
T1 construct: GIST Patients Treated with Sunitinib; from tissue; host or cells: tumour material of GIST patients treated with sunitinib
T1 sequence (P10721 26-976): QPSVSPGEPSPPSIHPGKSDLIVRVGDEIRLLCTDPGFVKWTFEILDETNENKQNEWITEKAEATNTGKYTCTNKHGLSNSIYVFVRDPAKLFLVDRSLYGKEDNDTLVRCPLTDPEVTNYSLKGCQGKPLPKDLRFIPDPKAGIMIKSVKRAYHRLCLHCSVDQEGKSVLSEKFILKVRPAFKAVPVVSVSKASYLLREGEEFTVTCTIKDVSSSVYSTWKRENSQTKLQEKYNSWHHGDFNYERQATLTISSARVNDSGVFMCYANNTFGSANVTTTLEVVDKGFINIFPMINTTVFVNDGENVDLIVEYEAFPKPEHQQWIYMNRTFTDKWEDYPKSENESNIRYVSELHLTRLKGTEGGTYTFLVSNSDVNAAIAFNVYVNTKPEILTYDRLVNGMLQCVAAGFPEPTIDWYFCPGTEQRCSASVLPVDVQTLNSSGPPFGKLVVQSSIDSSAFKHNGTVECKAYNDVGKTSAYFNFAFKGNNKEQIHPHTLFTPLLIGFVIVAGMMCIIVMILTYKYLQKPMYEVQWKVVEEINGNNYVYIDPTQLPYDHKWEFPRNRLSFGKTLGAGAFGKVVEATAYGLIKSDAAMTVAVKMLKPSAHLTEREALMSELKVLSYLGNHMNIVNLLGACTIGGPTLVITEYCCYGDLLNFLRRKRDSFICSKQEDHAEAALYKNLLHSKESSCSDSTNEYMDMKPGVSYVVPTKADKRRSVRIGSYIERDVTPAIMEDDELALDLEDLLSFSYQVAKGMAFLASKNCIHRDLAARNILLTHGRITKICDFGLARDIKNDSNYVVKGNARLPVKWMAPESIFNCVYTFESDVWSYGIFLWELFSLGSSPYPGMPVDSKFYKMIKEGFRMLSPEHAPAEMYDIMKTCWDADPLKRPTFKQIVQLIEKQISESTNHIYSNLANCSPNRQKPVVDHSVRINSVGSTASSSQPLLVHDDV

Phospho-c-KIT (Y721) = target: T2, Phospho-c-KIT (Y721) (Homo sapiens, UniProt P10721); test: c-KIT phosphorylation (Y721) in GIST patients treated with sunitinib; type: in vivo
T2 construct: GIST Patients Treated with Sunitinib; from tissue; host or cells: tumour material of GIST patients treated with sunitinib
T2 sequence (P10721 26-976): as above

| SMILES | toxicity (melanoma) | increase of apoptotic endothelial and tumor cells ([1]; nonresponding patients' tumors) | apoptosis of endothelial and tumor cells [1] | apoptosis of endothelial and tumor cells ([1]; listed as imatinib) | sensitivity to imatinib-induced growth inhibition and apoptosis [2] | levels of phospho-Y721 of c-KIT after imatinib treatment [3] | levels of phospho-Y721 of c-KIT after imatinib treatment ([3]; listed as imatinib) | Phospho-c-KIT (Y703) change (Phospho-c-KIT (Y703); NON-Responder) [% increase] | Phospho-c-KIT (Y703) change (Phospho-c-KIT (Y703); Responder) [% decrease] | Phospho-c-KIT (Y721) change (Phospho-c-KIT (Y721); NON-Responder) [% increase] | Phospho-c-KIT (Y721) change (Phospho-c-KIT (Y721); Responder) [% decrease] |
| --- | --- | --- | --- | --- | --- | --- | --- | --- | --- | --- | --- |
| Cc1ccc(NC(=O)c2ccc(CN3CCN(C)CC3)cc2)cc1Nc1nccc(-c2cccnc2)n1 [Imatinib] | significant toxicity | not seen | induces | higher levels of apoptosis; also recorded: substantial increase | more sensitive | inhibits | significantly reduced; also recorded: significant inhibition | – | – | – | – |
| CCN(CC)CCNC(=O)c1c(C)[nH]c(/C=C2\C(=O)Nc3ccc(F)cc32)c1C [Sunitinib, N-[2-(diethylamino)ethyl]-5-[(Z)-(5-fluoro-2-oxo-1,2-dihydro-3H-indol-3-ylidene)methyl]-2,4-dimethyl-1H-pyrrole-3-carboxamide] | – | – | – | – | – | – | – | 45 | 57 | 117 | 94 |
